The target of one assay is Histamine H1 receptor (Cavia porcellus, UniProt P31389). Kind of assay: Antagonism against H1 histamine receptor of guinea pig ileum. The format is functional, tissue-based. Particulars: read-out: pA2 (converted).
Assay [1] has as its target Muscarinic acetylcholine receptor M3 (Cavia porcellus) (UniProt Q8VH26). Kind of assay: Affinity for ileal muscarinic M3 receptor of guinea pig ileum. The format is tissue-based.
Assay [2] deals with T1, Adrenergic receptor alpha-1 (Rattus norvegicus, UniProt P15823+P23944+P43140).
T1 sequence (P15823 whole entry): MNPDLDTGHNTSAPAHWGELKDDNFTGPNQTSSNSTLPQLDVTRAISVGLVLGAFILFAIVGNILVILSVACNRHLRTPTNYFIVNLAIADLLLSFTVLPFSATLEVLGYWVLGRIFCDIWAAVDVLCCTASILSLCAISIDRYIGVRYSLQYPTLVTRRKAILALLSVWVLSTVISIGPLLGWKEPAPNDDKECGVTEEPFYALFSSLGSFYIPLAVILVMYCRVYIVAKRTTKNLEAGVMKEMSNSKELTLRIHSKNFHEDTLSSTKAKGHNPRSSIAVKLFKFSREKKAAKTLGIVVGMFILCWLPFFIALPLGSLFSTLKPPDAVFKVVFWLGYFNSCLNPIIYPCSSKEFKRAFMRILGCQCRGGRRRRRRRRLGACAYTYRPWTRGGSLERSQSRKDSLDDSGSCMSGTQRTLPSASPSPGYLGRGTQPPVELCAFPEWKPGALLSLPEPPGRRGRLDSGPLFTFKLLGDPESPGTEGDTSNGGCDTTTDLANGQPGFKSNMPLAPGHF
T1 sequence (P23944 whole entry): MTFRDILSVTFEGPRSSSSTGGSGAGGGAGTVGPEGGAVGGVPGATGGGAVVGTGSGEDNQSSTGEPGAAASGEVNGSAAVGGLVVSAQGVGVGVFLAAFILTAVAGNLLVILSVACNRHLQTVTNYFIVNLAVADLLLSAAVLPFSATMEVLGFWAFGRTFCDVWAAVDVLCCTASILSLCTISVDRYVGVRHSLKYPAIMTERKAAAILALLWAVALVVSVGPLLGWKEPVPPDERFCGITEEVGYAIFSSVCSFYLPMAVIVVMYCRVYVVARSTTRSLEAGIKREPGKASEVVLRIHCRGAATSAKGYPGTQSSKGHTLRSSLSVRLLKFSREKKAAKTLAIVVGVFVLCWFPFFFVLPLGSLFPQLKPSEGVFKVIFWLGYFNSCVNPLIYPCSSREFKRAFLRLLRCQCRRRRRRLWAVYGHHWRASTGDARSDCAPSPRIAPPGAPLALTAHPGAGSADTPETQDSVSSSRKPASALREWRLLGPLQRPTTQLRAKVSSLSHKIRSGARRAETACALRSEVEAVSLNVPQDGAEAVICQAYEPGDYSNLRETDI
T1 sequence (P43140 whole entry): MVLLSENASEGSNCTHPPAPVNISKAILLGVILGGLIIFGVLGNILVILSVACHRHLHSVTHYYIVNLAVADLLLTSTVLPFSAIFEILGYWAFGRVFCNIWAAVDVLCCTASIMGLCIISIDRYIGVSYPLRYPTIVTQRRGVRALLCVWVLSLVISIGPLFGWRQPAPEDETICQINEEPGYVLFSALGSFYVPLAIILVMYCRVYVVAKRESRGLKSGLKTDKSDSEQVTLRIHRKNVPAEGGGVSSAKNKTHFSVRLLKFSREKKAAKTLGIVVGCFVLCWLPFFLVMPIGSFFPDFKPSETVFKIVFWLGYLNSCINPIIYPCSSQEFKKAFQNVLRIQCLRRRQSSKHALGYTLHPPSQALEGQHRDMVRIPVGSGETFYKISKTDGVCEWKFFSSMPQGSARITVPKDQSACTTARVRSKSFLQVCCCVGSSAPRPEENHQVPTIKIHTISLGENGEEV
The assay is described as follows: Antagonism against Alpha-1 adrenergic receptor of rat aorta. The class given is functional, tissue-based.

The target of assay [3] is Histamine H1 receptor (Cavia porcellus) (UniProt P31389). Kind of assay: Affinity for H1 histamine receptor of guinea pig ileum. The class given is tissue-based.
For assay [4], the target named is Serotonin 3 (5-HT3) receptor (Homo sapiens) (UniProt P46098+A5X5Y0+O95264+Q70Z44+Q8WXA8). Kind of assay: Binding affinity against 5-hydroxytryptamine 3 receptor of guinea pig ileum. The format is tissue-based. To be noted: Cavia porcellus, target entry is the homologue from another species.
Assay [5] deals with Adrenergic receptor alpha-1 (Rattus norvegicus) (UniProt P15823+P23944+P43140). The assay is described as follows: Affinity for Alpha-1 adrenergic receptor of rat aorta. The class given is tissue-based.
Assay [6] has as its target T2, 5-hydroxytryptamine receptor 2A (Rattus norvegicus, UniProt P14842). The assay is described as follows: Antagonism of 5-HT2A receptor of rat tail artery. The class given is functional, tissue-based. To be noted: read-out: pA2 (converted).
Assay [7] addresses T2, 5-hydroxytryptamine receptor 2A. Kind of assay: Binding affinity towards 5-HT2A receptor of rat tail artery. The format is tissue-based.
Assay [8] concerns the target 5-hydroxytryptamine receptor 2A (Rattus norvegicus) (UniProt P14842). Kind of assay: Affinity for 5-HT2A receptor of rat tail artery. The class given is tissue-based.
Assay [9] has as its target Muscarinic acetylcholine receptor M3 (Cavia porcellus) (UniProt Q8VH26). The assay is described as follows: Binding affinity against ileal muscarinic M3 receptor of guinea pig ileum. The format is tissue-based.
Assay [10] addresses 5-hydroxytryptamine receptor 2A (Rattus norvegicus) (UniProt P14842). The assay is described as follows: Binding affinity against 5-HT2A receptor of rat tail artery. The format is tissue-based.

Chain of Histamine H1 receptor (Cavia porcellus) (P31389 whole entry): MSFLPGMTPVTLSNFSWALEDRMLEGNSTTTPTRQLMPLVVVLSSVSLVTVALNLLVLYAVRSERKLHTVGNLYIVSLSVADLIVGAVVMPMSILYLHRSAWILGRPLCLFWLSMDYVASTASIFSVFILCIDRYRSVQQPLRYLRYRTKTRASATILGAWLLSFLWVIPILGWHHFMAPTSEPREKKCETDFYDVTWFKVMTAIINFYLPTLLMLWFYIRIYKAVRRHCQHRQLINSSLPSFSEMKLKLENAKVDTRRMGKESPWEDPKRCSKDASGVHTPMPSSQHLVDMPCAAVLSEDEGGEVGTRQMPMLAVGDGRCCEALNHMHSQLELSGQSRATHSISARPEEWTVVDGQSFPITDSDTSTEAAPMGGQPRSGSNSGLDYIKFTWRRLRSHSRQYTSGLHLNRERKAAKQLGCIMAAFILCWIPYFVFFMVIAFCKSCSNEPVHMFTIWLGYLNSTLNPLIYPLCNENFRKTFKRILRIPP
Chain of 5-hydroxytryptamine receptor 2A (Rattus norvegicus) (P14842 whole entry): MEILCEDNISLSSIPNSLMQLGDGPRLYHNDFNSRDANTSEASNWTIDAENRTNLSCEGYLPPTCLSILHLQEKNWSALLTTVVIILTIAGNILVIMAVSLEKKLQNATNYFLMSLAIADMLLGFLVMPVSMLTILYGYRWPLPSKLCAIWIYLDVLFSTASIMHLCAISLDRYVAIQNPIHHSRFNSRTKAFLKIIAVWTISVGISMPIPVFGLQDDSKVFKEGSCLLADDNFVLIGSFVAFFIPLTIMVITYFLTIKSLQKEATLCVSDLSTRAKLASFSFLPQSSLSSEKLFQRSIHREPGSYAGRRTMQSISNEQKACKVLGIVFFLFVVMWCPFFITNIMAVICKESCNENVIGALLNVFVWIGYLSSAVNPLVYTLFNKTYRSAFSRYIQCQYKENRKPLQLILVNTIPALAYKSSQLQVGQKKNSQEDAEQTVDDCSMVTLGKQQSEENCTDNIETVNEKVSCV
T2 sequence (P14842 whole entry): as above
Chain of Muscarinic acetylcholine receptor M3 (Cavia porcellus) (Q8VH26 1-587): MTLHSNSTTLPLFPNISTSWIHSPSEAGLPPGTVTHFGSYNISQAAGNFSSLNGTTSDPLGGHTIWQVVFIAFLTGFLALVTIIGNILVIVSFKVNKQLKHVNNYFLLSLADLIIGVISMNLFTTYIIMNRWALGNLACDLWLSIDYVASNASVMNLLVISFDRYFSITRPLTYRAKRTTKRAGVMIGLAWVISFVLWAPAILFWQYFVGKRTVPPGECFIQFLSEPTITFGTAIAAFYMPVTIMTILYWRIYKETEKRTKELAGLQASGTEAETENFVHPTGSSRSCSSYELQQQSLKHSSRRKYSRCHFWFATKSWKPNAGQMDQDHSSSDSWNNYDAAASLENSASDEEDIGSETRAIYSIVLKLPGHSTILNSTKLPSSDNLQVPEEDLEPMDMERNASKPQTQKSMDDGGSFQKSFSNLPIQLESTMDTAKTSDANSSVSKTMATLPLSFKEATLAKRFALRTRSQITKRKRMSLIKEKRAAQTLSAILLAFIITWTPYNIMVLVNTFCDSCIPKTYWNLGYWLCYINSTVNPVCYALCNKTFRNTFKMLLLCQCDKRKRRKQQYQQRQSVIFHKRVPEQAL
Chain of Histamine H1 receptor (P31389 whole entry): as the sequence (P31389 whole entry) above

For the compound `O=C(c1ccc(F)cc1)C1CCN(CCn2c(=O)[nH]c3ccccc3c2=O)CC1` [KETANSERIN], the Kb at Histamine H1 receptor was 1.41 nM. Further, in assay [1], the pKB (as a rule, the negative decadic logarithm of the KB, by convention in mol/L) came to 4.18. Besides, the pA2 (usually a measure of antagonist potency on a negative log scale) in [2] was 8.09.
Take `Cn1c2c(c3ccccc31)C(=O)C(CN1CCC(C(=O)c3ccc(F)cc3)CC1)CC2` (racemic) [listing 1 of 2 here]: the pKB is 6.92 in assay [3], less than 5.7 in assay [4], 7.96 in assay [5] and 5.19 in assay [1].
Consider `O=C(c1ccc(F)cc1)C1CCNCC1`, for which the Kb in assay [6] is 525 nM. Moreover, the Ki (commonly a measure of affinity in units of concentration, obtained from inhibition or displacement) in [7] was 398 nM.
`Cn1c2c(c3ccccc31)C(=O)C(CN1CCN(c3ccccc3F)CC1)CC2` (configuration not stated): the pKB in assay [3] is 6.19; in [4], less than 5.2; in assay [8], 7.8; in assay [1] it was 4.72. Moreover, in assay [2], the pA2 is recorded as 8.75.
In the case of `Cn1c2c(c3ccccc31)C(=O)C(CN1CCC(c3ccccc3)CC1)CC2` (configuration not stated), the negative-log KB (pKB) in assay [3] is 6.4; in assay [4] it was less than 5.2; in [8], 8.43; in [5], 7.58; in assay [1], 4.97.
As to `Cn1c2c(c3ccccc31)C(=O)C(CN1CCC(=C(c3ccc(F)cc3)c3ccc(F)cc3)CC1)CC2` (configuration not stated), the pKB in assay [3] turned out to be 7.41; in [8], 6.3; in [5], 5.81; in [1], 5.7. Further, the pD2 in [4] came to 6.08.
On to `Cn1c2c(c3ccccc31)C(=O)C(CN1CCC(C(=O)c3ccccc3)CC1)CC2` (configuration not stated), for which the pKB is 6.53 in assay [3], less than 5.5 in assay [4], 7.36 in assay [5] and 5.01 in assay [1]. The Kb in assay [6] was 4.57 nM.
`Cn1c2c(c3ccccc31)C(=O)C(CN1CC=C(c3c[nH]c4ccc(F)cc34)CC1)CC2` (configuration not stated): the results for the pKB in assay [3], in assay [8] and in assay [5] were 6.6, 7.22 and 6.49, respectively.
As for `Cn1c2c(c3ccccc31)C(=O)C(CN1CCC(C(=O)c3ccc(F)cc3)CC1)CC2` (stereo in doubt; (-)-13) [listing 1 of 2 here], the results for the pKB in [3] and in assay [5] were 6.74 and 8.08, respectively.
Take `Cn1c2c(c3ccccc31)C(=O)C(CN1CCC(C(=O)c3ccc(F)cc3)CC1)CC2` (single isomer, unassigned; (+)) [listing 1 of 2 here]: the Kb in [6] was 64.6 nM.
`Cn1c2c(c3ccccc31)C(=O)C(CN1CCC(C(=O)c3ccc(F)cc3)CC1)CC2` (single isomer, unassigned; (+)) [listing 2 of 2 here]: the pKB in [3] was 6.82; in assay [5], 7.28.
The compound `Cn1c2c(c3ccccc31)C(=O)C(CNCc1ncc[nH]1)CC2` (configuration not stated) displayed a pKB in assay [8] of 6.59.
On to `Cn1c2c(c3ccccc31)C(=O)C(CN1CCC(C(=O)c3ccc(F)cc3)CC1)CC2` (stereo in doubt; (-)-13) [listing 2 of 2 here], for which the Kb in assay [6] is 0.437 nM.
As for `Cc1nccn1CC1CCc2c(c3ccccc3n2C)C1=O` (configuration not stated), the pKB is 4.37 in [3], 5.29 in [5], 4.72 in assay [9] and 4.66 in [10].
As for `COc1ccc2[nH]cc(C3=CCN(CC4CCc5c(c6ccccc6n5C)C4=O)CC3)c2c1` (configuration not stated), the pKB came out at 6.31 in assay [3], 6.09 in [8] and 6.59 in assay [5].
For the compound `Cn1c2c(c3ccccc31)C(=O)C(CN1CC=C(c3c[nH]c4ccccc34)CC1)CC2` (configuration not stated), the pKB in assay [3] was found to be 6.62; in assay [5] it was 7.58. The Kb in assay [6] was 6.31 nM.
As for `Cn1c2c(c3ccccc31)C(=O)C(CN1CCCCC1)CC2` (configuration not stated), the pKB was 5.69 in assay [3]; less than 5.3 in [4]; 5.98 in assay [8]; 6.11 in assay [5]; 4.98 in assay [1].
Regarding `CN(CCn1c(=O)[nH]c2ccccc2c1=O)CC1CCc2c(c3ccccc3n2C)C1=O` (configuration not stated), the pKB in assay [3] is 5.9; in [4] it was less than 5.7; in [8], 5.5; in [5] it was 6.45; in [1] it was 4.68.
With `Cn1c2c(c3ccccc31)C(=O)C(CN1CCN(c3ccc(F)cc3)CC1)CC2` (configuration not stated), the pKB in [3] is 6.74; in assay [4], less than 5.5; in assay [5], 7.8; in assay [1], 5.55. Moreover, in [6], the Kb was 2.51 nM.
Consider `Cn1c2c(c3ccccc31)C(=O)C(CNCCc1c[nH]cn1)CC2` (configuration not stated), for which the pKB in assay [8] was 6.75.
With `Cn1c2c(c3ccccc31)C(=O)C(CN1CCC(C(=O)c3ccc(F)cc3)CC1)CC2` (racemic) [listing 2 of 2 here], the Kb in assay [6] was 0.617 nM.
`Cn1c2c(c3ccccc31)C(=O)C(CNc1ncc[nH]1)CC2` (configuration not stated) had a pKB in assay [8] of 6.73.

The record behind these values is ChEMBL document CHEMBL1128861 (Bioorg Med Chem Lett, 1995).
